Assays:
[1] = tested on: anti-OVA-specific IgG2a subclass antibody; assay: Adjuvant activity: anti-OVA-specific IgG2a subclass antibody in serum after secondary immunization; assay type: in vivo, BALB/c mice
Experimental: Two weeks from the secondary immunization, the whole blood was extracted under anesthesia, and the obtained serum sample was measured for anti-OVA-specific IgG1 subclass antibody.
Measurement Method of anti-OVA-specific IgG2a Subclass Antibody
To a 96 well plate was added 5 μg/ml OVA at 100 μl/well, and the mixture was incubated at 4° C. overnight. After incubation, the mixture was washed three times with 200 μl of PBS-T (PBS+0.05%(v/v) Tween 20) per well, and blocked with 100 μl of 5% FCS/PBS solution per well at room temperature for 1 to 2 hr. Thereafter, the mixture was washed three times with PBS-T (200 μl/well), a diluted serum sample (100 μl/well) or the same amount of 5% FCS/PBS solution as a control was added, and the mixture was incubated at 37° C. for 1 hr. Thereafter, the mixture was washed five times with PBS-T (200 μl/well), a diluted biotinylated anti-mouse IgG2a antibody (100 μl/well) was added, and the mixture was incubated at 37° C. for 45 min. Thereafter, the mixture was washed five times with PBS-T (200 μl/well), a diluted anti-biotin-HRP antibody was added (100 μl/well), and the mixture was incubated at 37° C. for another 30 min. Thereafter, the mixture was washed five times with PBS-T (200 μl/well), TMB substrate solution was added (100 μl/well), and the mixture was incubated at room temperature for 10-15 min. Thereafter, a reaction quenching liquid (2N sulfuric acid solution) was added (50 μl/well) to discontinue a color developing reaction, and the absorbance (OD Value=450 nm) was measured by a microplate reader.
Measurement Method of Concentration of anti-OVA-specific IgG1 Subclass Antibody and anti-OVA-specific IgG2a Subclass Antibody
To a 96 well plate was added 5 μg/ml OVA at 100 μl/well, and the mixture was incubated at 4° C. overnight. After incubation, the mixture was washed three times with 200 μl of PBS-T (PBS+0.05% (v/v) Tween 20) per well, and blocked with 100 μl of 5% FCS/PBS solution per well at room temperature for 1 to for 2 hr. […] When an anti-OVA-specific IgG2a subclass antibody was measured, the standard of an anti-OVA-specific IgG2a subclass antibody was added at 50 ng/ml, 25 ng/ml, 12,5 ng/ml, 6.25 ng/ml, 3.125 ng/ml, 1.56 ng/ml, 0.781 ng/ml, 0.391 ng/ml, 0.195 ng/ml, 0.098 ng/ml, 0.049 ng/ml, 0 ng/ml, per 1 well. […] Thereafter, a reaction quenching liquid (2N sulfuric acid solution) was added (50 μl/well) to discontinue a color developing reaction, and the absorbance (OD Value=450 nm) was measured by a microplate reader. A standard curve was drawn from the measured OD values, and the concentration was calculated.

[2] = tested on: anti-OVA-specific IgG1 subclass antibody; assay: Adjuvant activity: anti-OVA-specific IgG1 subclass antibody in serum after secondary immunization (Examples 12, 19, 20, 21); assay type: in vivo, BALB/c mice; details: Example 21; s.c.; SZ62 0.256 μmol in 5% αCD saline, CpG 5 μg, MPL 5 μg, Addavax 1:1, Alum; two weeks from secondary immunization
IFN-γ = assay: Th1 response: IFN-γ production from lymph node cells of immunized mice restimulated with OVA; assay type: in vivo, BALB/c mice; details: Example 10; s.c. OVA 10 μg + 0.256 μmol in 5% αCD saline (Addavax 1:1); groin lymph node ten days later; 0.1-100 μg OVA, 40 hr, ELISA
Experimental: (§1) Ten days later, groin lymph node was collected from all mice of the above-mentioned (1) to (4), lymph node cells were isolated and cultured in 10% FBS-containing RPMI1640 medium. Thereto was added 0.1 μg, 1 μg, 10 μg, 100 μg of OVA, respectively, 40 hr later, cell supernatant was recovered, and IFN-γ and IL-4 in the supernatant were measured by ELISA.

[3] = Dispersibility study: turbidity in cyclodextrin-added saline; assay type: physicochemical; details: Example 11; SZ62 0.256 μmol in 1 mL; absorbance 650 nm, ratio to kaolinite
Experimental: N-hexadecanoylagmatine (SZ62: compound wherein group corresponding to R^7 in formula (II) is C15 alkyl group) (0.256 μmol) was separated in a 2 mL tube containing zilconia beads, 1 mL of 5% αCD-added saline or 10% 2-hydroxypropyl-β-cyclodextrin (hereinafter to be also simply referred to as HP-β-CD)-added saline was added and the mixture was stirred. Thereafter, the absorbance (OD Value=650 nm) was measured by a microplate reader, and the turbidity was calculated as an index of dispersibility. The measurement method of the turbidity was as follows.
Measurement Method of Turbidity
SZ62 (0.256 μmol) was dispensed to a 2 mL tube containing zirconia beads, 5% αCD-added saline or 10% HP-β-CD-added saline (1 mL) was added, and the mixture was vigorously stirred three times under conditions of one time for 3.15 seconds at 6000 rpm. The mixture was dispensed by 200 μL to a 96 well plate, and the absorbance (OD Value=650 nm) was measured by a microplate reader. As a control, kaolinite (1 mg) was dissolved in distilled water (1 L), and the absorbance (OD Value=650 nm) was measured by a microplate reader. The absorbance thereof (OD Value=650 nm) was defined to be turbidity: 1, and the turbidity of each sample was calculated from the ratio with the measured value of kaolinite.

IL-4 = assay: Th2 response: IL-4 production from lymph node cells of immunized mice restimulated with OVA; assay type: in vivo, BALB/c mice; details: Example 10; s.c. OVA 10 μg + 0.256 μmol in 5% αCD saline (Addavax 1:1); groin lymph node ten days later; 0.1-100 μg OVA, 40 hr, ELISA
Experimental: as §1

[4] = Example 2, serum sample of Example 1

CCCCCCCCCCCCCCCC(=O)NC(=N)NCCCCN [SZ62, N-hexadecanoylagmatine]
adjuvant activity (IgG2a) compared with Alum [1, 4]: equivalent to that of Alum | anti-OVA-specific IgG2a subclass antibody production as compared to the OVA single administration group [1, 4]: significantly increased | anti-OVA-specific IgG2a subclass antibody production as compared to the OVA single administration group ([1]; Example 21, s.c., SZ62 0.256 μmol in 5% αCD saline, CpG 5 μg, MPL 5 μg, Addavax 1:1, Alum, two weeks from secondary immunization): tended to increase | anti-OVA-specific IgG1 subclass antibody production as compared to the OVA single administration group [2]: tended to increase | IFN-γ production from lymph node cells (IFN-γ): increased in an OVA volume dependent manner | turbidity after addition of 10% HP-β-CD-added saline and stirring, versus turbidity after addition of 5% αCD-added saline [3]: significantly lower | IL-4 production from lymph node cells (IL-4): did not show an increase
